Tests used:
[1] = tested on: saphenous vein in rabbits; assay: Contractile effect on the rabbit saphenous vein precontracted by a depolarizing physiological solution (K+ 40 mM); type: cell-based; settings: Oryctolagus cuniculus, precontracted with 40 mM potassium; for Emax: % of maximum contraction induced by hyperpotassic solutions; for EC50: read-out: ED50 (the source's name)
Method: The contractile effects are measured in vitro under static conditions on vascular capacitance or resistance rings of saphenous, femoral, jugular, mesenteric, and caval veins . . . and on femoral, carotid, basilar, or mesenteric arteries, as well as the thoracic or abdominal aorta . . . in rats (Wistar, 200-250 g), rabbits (New Zealand, 2-2.5 kg), guinea pigs (Dunkin Hartley 250-300 g).
The rings are placed in a chamber for isolated organs (25 mL for capacitance vessels and 2.5 mL for resistance vessels according to Mulvany), and maintained under isometric conditions using two rigid threads inserted inside the vessel, avoiding causing damage to the endothelium. The vessels are bathed in a modified Krebs solution (in mM: NaCl=118; KCl=4.6; CaCl2 =2.5; MgSO4 =1.2; KH2 PO4 =1.17; NaHCO3 =25; glucose=11), continuously aerated using a gaseous mixture of 95% O2 and 5% Co2, at a pH=7.4, and regulated by thermostat at 37° C. The rings are adjusted to their optimal point as far as the tension-length relationship is concerned. The tensions developed generate an electrical signal through the intermediary of a force sensor (Wheatstone bridge). […] The pharmacological studies are carried out after a few standardized preliminary contractile stimulations using a depolarizing solution (hyperpotassic type obtained by replacing NaCl with KCl in equimolar quantities), along with rinsings and periods of equilibration in a pure physiological solution. The presence of endothelium is verified by the relaxation induced by increasing the concentration of acetylcholine after the stabilization of a vascular precontraction.
The forces of contraction developed by the vascular rings in response to the different compounds are studied on quiescent or electrically stimulated vessels (5-8 Hz), by a "physiological" depolarizing hyperpotassic solution (KCl: 20, 40 mM), by noradrenaline (increasing concentrations), [and by] serotonin (increasing concentrations).
The contractions are expressed in mg force or as a percentage of the maximum contraction at the time of the depolarization with a "physiological" hyperpotassic solution.
The contractile effect of different compounds on the saphenous vein in rabbits, precontracted by a depolarizing "physiological" solution with a potassium concentration of 40 mM, is given as an illustration; the maximum effect produced by each compound is expressed as a percentage of the maximum contraction induced by depolarizing hyperpotassic solutions and as value of ED50): […]

[2] = tested on: fibroblastic cell lines of mice (L929); assay: Cytotoxicity on L929 fibroblastic cell lines (neutral red incorporation); type: cell-based, mouse; settings: L929, up to concentrations equal to their solubility in an aqueous medium
Source text: (§1) Moreover, the compounds of the invention and their possible salts have a very low toxicity.

[3] = tested on: capillary resistance of rats; assay: Capillary resistance of rats after oral administration (petechial index); type: in vivo, rat (Wistar); settings: rat
Method: The increase in the capillary resistance is evaluated by the modification of the petechial index (negative pressure inducing the extravasation of the erythrocytes), measured by a method derived from the angiosterrometer of Parrot.
The studies are carried out on male Wistar rats with an average weight of 200 g (approximate age six weeks). The bottom area of the back is shorn, then the hair is pulled by means of a paste based on a derivative of thioglycolic acid and calcium hydroxide. After approximately 30 min, the skin is abundantly rinsed and dried.
On the day of the study, the rats are maintained without constraint. A low pressure of 80 mm of mercury is applied. If the petechiae (extravasation of erythrocytes) have not appeared within 15 sec, the low pressure is increased as a countermeasure, keeping the suction cap at the same place.
The minimum low pressure where petechias appear, in mm of mercury, expresses the basal capillary resistance (before any treatment). Two measurements are made for each test at different sites on of the back.
The rats are treated by the oral route. […] All the measurements are done in the blind mode.
A percentage of variation in the capillary resistances of the animals treated compared to their basal capillary resistance is calculated for each compound studied, at each treatment time and compared with the control group (excipient only) or the reference group.

[4] = tested on: hyperpermeability induced by zymosan in rats; assay: Inflammatory hyperpermeability induced by zymosan in rats; type: in vivo, rat (Wistar); settings: rat, oral
Method: The vascular permeability is studied in vivo by measuring the extravasation of albumin, the quantity of which is determined using an albumin-binding dye (Evans blue).
The hyperpermeability is induced by the intradermal injection of a solution of histamine, bradykinin, or zymosan.
The abdominal walls of the rats (Wistar, 200-230 g) are shorn 1 h before the start of the experiment. The product to be tested is injected by the intraperitoneal route or orally 1-4 h before the sacrifice. The rats are anesthetized with a halothane mixture. They then receive an intradermal injection in their abdomen of 0.10 or 0.15 mL (or for histamine 6.7 or […]) of inflammatory agent and an intravenous injection of 1 mL of 0.5% Evans blue solution in the vein of the penis. These injections are carried out 30 min before the sacrificing.
30 min after these two injections, the rats are sacrificed by cervical dislocation.
At the site of the injection of the inflammatory agent, the skin is cut and placed into glass tubes with a ground[-glass] neck containing 3 mL of fuming hydrochloric acid. […] After allowing the preparation to stand for 30 min, 7 mL of dichloromethane are added. The tubes are periodically agitated for 1 h. The aqueous phase is eliminated by aspiration, and the organic "dichloromethane" phase is filtered. The optical densities are quantified by absorption spectrophotometry at a wavelength of 620 nm, against a blank [control] containing only dichloromethane. The averages of the optical densities of the different lots of treated or control animals are calculated, then a percentage of variation of the values corresponding to the treated [experimental] animals compared to those of the control animals is calculated.

mice = assay: Single oral administration toxicity in mice; type: in vivo, mouse
Source text: as §1

[5] = single oral administration of 500 mg/kg
[6] = single oral administration, 1 g/kg

Row | SMILES | Emax [1] [%] | EC50 [1] [nM] | cytotoxicity (viability by neutral red incorporation) [2] | Increase of capillary resistance, effects after 4 h ([3]; 5 mg/kg) | Increase of capillary resistance, effect after 6 h ([3]; 5 mg/kg) | Zymosan-induced hyperpermeability, effect after 2 h ([4]; 0.1 mg/kg) | Zymosan-induced hyperpermeability, effect after 4 h ([4]; 0.1 mg/kg) | observed signs (mice; [5]) | toxic effect and mortality (mice; [5]) | Increase of capillary resistance, effects after 4 h ([3]; 0.1 mg/kg) | Increase of capillary resistance, effect after 6 h ([3]; 0.1 mg/kg) | observed signs (mice; [6]) | toxic effect and mortality (mice; [6]) | Zymosan-induced hyperpermeability, effect after 2 h ([4]; 5 mg/kg) | Zymosan-induced hyperpermeability, effect after 4 h ([4]; 5 mg/kg)
1 | O=C1c2ccccc2C(=O)c2sc(-c3cccs3)nc21 [Example 20, 4,9-Dihydro-4,9-dioxo-2-(2-thienyl)-naphtho[2,3-d]thiazole] | 24 ± 4 | 110 | noncytotoxic |  |  |  |  |  |  |  |  |  |  |  | 
2 | O=C1c2ccccc2C(=O)c2oc(-c3ccccc3F)nc21 [Example 3, 4,9-Dihydro-4,9-dioxo-2-(2-fluorophenyl)-naphtho[2,3-d]oxazole] | 17 ± 6 | 36 | noncytotoxic | 27 % of the control | 18 % of the control | -22 % of the control | -26 % of the control | slight diarrheas | no observable toxic effect and no mortality |  |  |  |  |  | 
3 | O=C1c2ccccc2C(=O)c2sc(-c3ccccc3)nc21 [Example j, 4,9-Dihydro-4,9-dioxo-2-phenylnaphtho[2,3-d]thiazole] | 16 ± 6 | 30 | noncytotoxic |  |  | -14 % of the control | -32 % of the control |  | no observable toxic effect and no mortality |  |  |  |  |  | 
4 | O=C1c2ccccc2C(=O)c2oc(-c3cccc(F)c3)nc21 [Example 4, 4,9-Dihydro-4,9-dioxo-2-(3-fluorophenyl)-naphtho[2,3-d]oxazole] | 29 ± 11 | 42 | noncytotoxic |  |  |  |  |  |  |  |  |  |  |  | 
5 | Cc1nc2c(s1)C(=O)c1ccccc1C2=O [Example h, 4,9-Dihydro-4,9-dioxo-2-methylnaphtho[2,3-d]thiazole] | 29 ± 6 | 86 |  |  |  |  |  |  |  | 19 % of the control | 19 % of the control | diarrheas | no observable toxic effect and no mortality |  | 
6 | O=C1c2ccccc2C(=O)c2oc(-c3ccccc3)nc21 [Example f, 4,9-Dihydro-4,9-dioxo-2-phenylnaphtho[2,3-d]oxazole] | 15 ± 1 | 21 | noncytotoxic |  |  | -15 % of the control | -22 % of the control |  |  | 7 % of the control | 17 % of the control |  | no observable toxic effect and no mortality |  | 
7 | O=C1c2ccccc2C(=O)c2sc(-c3ccsc3)nc21 [Example 21, 4,9-Dihydro-4,9-dioxo-2-(3-thienyl)-naphtho[2,3-d]thiazole] |  |  | noncytotoxic | 10 % of the control | 22 % of the control |  |  |  |  |  |  |  |  | -22 % of the control | -21 % of the control

From US6262095A, “Use of tricyclic derivatives of 1,4-dihydro-1,4-dioxo-1H-naphthalene, novel compounds obtained and their application in theraphy” (Laboratoire Innothera, priority 1995, dated 2001)
